The target of this test is T1, thermopsin, thermostable acid protease purified from Sulfolobus acidocaldarius culture medium (Sulfolobus acidocaldarius, UniProt P17118).
T1 construct: There are 41 amino acids in front of the NH2 -terminal position of thermopsin including the initiation methionine; made in house; host or cells: native enzyme purified from Sulfolobus acidocaldarius culture medium (not recombinant)
T1 sequence (P17118 42-340): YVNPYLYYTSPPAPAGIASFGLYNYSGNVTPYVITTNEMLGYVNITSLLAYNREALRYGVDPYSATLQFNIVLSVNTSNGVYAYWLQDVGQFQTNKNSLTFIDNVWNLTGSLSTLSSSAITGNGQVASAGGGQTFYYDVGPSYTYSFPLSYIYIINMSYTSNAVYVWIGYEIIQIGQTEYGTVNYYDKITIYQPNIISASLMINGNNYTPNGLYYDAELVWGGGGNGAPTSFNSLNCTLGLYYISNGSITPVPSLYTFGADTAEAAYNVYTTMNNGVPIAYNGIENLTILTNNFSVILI
The test is described as follows: Effects of proteinase inhibitors on thermopsin (preincubation with inhibitor, then 14C-hemoglobin proteolytic assay). It is filed as biochemical. As to conditions: for remaining activity at 20 µM: 0.02 mM inhibitor in preincubation (pH 6.0, 37° C., 5 min); for remaining activity at 10 µM: 0.01 mM inhibitor in preincubation (pH 6.0, 37° C., 5 min). Here is the method: Proteolytic activity is routinely assayed using ^14 C-methylated bovine hemoglobin as substrate, as prepared according to the method of Lin, et al., J. Biol. Chem. 264,4482-4489 (1989). The assay mixture, containing 0.51% hemoglobin substrate and thermopsin in 0.1 ml of 0.1M sodium formate, pH 3.2, is placed in an Eppendorf tube. After incubation at 80° C. for a period of time between 5 to 30 min, depending on the level of activity of thermopsin used, an aliquot of 0.1 ml of 10% trichloracetic acid is added to stop the reaction and precipitate the protein. After removal of the precipitate by centrifugation, the radioactivity of an aliquot of the clear supernate is determined in a scintillation counter.
The effect of various protease inhibitors on the activity of thermopsin was tested.
Thermopsin is preincubated with the indicated level of inhibitor in 0.1 M
phosphate buffer, pH 6.0, containing 1 mM EDTA and DTT at 37° C.
for 5 min. Sodium formate (pH 3.2) and ^14 CHemoglobin is then added
to a concentration as described above. The enzyme assay is then carried
out at 80° C. for 15 min. Enzyme activity is expressed as percent

The mark [1] stands for this setting: concentration not given, see Table II.
Where [2] appears, read: assay pH 3.2, 80° C., 15 min, percent of control, read-out: Enzyme Activity (%).

Several values for one entry are separate records, joined by “and”; a condition that tells them apart may be missing. Equal entries are not always repeated. Entries after “also recorded” stand apart in the source; their conditions may differ. Where two headings read alike, the source gives them in different places. Numbered stars: 1 amine (or outer) side, 2 acyl side, 3 side chain; on linkers, the order of the positions; unused ones are H or OH. Square brackets hold non-standard residues; d marks the D form. Peptide text beside a SMILES is read from it. * marks the point of attachment. Sta = CC(C)C[C@H](N)[C@@H](O)CC(=O)O; Isovaleryl = CC(C)CC(=O)*; CO = O=C([*:1])[*:2]

The results in this text go back to patent publication US5173403A, “Thermostable acid protease from sulfolobus acidocaldarius and gene” (Oklahoma Medical Research Foundation, priority 1990, dated 1992).

In the case of `CCCCC(NC(=O)C=[N+]=[N-])C(=O)OC` (racemic) [DAN, diazoacetyl-DL-norleucinemethlyester], the remaining activity at 12000 µM (12 mM inhibitor in preincubation (pH 6.0, 37° C., 5 min), assay pH 3.2, 80° C., 15 min, percent of control, read-out: Enzyme Activity (%)) came to 100%. For the same compound, the “effect of inhibitor on thermopsin activity (in words)” value (“effect of inhibitor” for short) under setting [1] is “not inactivated; also recorded: no effect”.
With `CC(C)[C@H](NC(=O)[C@H](CCCNC(=N)N)NC(=O)N[C@@H](Cc1ccccc1)C(=O)O)C(=O)N[C@H](C=O)CCCNC(=N)N` [Antipain, antipain] ({Phe-CO}-Arg-Val-Arg-aldehyde), the remaining activity at 20 µM under setting [2] was 25%. Also, the “effect of inhibitor” value under setting [1] is recorded as “inhibited; also recorded: significant inhibition”.
For the compound `O=C(O)CN(CCN(CC(=O)O)CC(=O)O)CC(=O)O` [EDTA], the “effect of inhibitor” value is listed as “little effect”. The remaining activity at 1000 µM (read-out: Enzyme Activity (%)) came out at 100%.
In the case of `CC(C)C[C@H](NC(=O)N[C@H](C(=O)N[C@@H](CCC(N)=O)C(=O)N[C@@H](C)C=O)[C@@H]1CCNC(=N)N1)C(=O)O` [Elastatinal, elastatinal], the remaining activity at 20 µM under setting [2] was 70%.
On to `O=C(O)CI` [Iodoacetic Acid, iodoacetic acid], for which the “effect of inhibitor” value is on record as “little effect”. For the same compound, for the setting “read-out: Enzyme Activity (%)”, the remaining activity at 100 µM amounted to 74%.
With `CC(=O)N[C@@H](CC(C)C)C(=O)N[C@@H](CC(C)C)C(=O)N[C@H](C=O)CCCNC(=N)N` [Leupeptin, leupeptin], under “0.004 mM inhibitor in preincubation (pH 6.0, 37° C., 5 min), assay pH 3.2, 80° C., 15 min, percent of control, read-out: Enzyme Activity (%)”, the remaining activity at 4 µM was determined as 93%.
Consider `CCN1C(=O)C=CC1=O` [N-ethylmaleimide], for which the remaining activity at 100 µM (0.1 mM inhibitor in preincubation (pH 6.0, 37° C., 5 min), assay pH 3.2, 80° C., 15 min, percent of control, read-out: Enzyme Activity (%)) stood at 95%. Besides, the “effect of inhibitor” value under setting [1] is “little effect”.
Take `O=S(=O)(F)Cc1ccccc1` [PMSF, phenylmethylsulfonyl fluoride]: the “Enzyme Activity (%)” value (2 mM inhibitor in preincubation (pH 6.0, 37° C., 5 min), assay pH 3.2, 80° C., 15 min, percent of control) is reported as 28%. Further, the “effect of inhibitor” value under setting [1] is “significantly inactivate; also recorded: significant inhibition”.
Take `CC(C)CC(=O)N[C@H](C(=O)N[C@H](C(=O)N[C@@H](CC(C)C)[C@@H](O)CC(=O)N[C@@H](C)C(=O)N[C@@H](CC(C)C)[C@@H](O)CC(=O)O)C(C)C)C(C)C` [Pepstatin, pepstatin] (Isovaleryl-VV[Sta]A[Sta]-OH): the remaining activity at 0.5 µM (0.5 μM inhibitor in preincubation (pH 6.0, 37° C., 5 min), assay pH 3.2, 80° C., 15 min, percent of control, read-out: Enzyme Activity (%)) amounted to 50%. In addition, the remaining activity at 5 µM (5 μM inhibitor in preincubation (pH 6.0, 37° C., 5 min), assay pH 3.2, 80° C., 15 min, percent of control, read-out: Enzyme Activity (%)) turned out to be 16%. Also, the “effect of inhibitor” value under setting [1] is given as “strongly inhibited”. For the same compound, where the note is “thermopsin proteolytic activity, hemoglobin substrate, read-out: inhibitor concentration giving 50% inhibition of enzyme activity”, the IC50 is ~500 nM and 500 nM.
With `Cc1ccc(S(=O)(=O)N[C@@H](CCCCN)C(=O)CCl)cc1` [TLCK, N-p-Tosyl-1-lysine chloromethyl ketone], the remaining activity at 10 µM under setting [2] was determined as 78%. In addition, the “effect of inhibitor” value under setting [1] is listed as “much less effective”.
Turning to `Cc1ccc(S(=O)(=O)N[C@@H](Cc2ccccc2)C(=O)CCl)cc1` [TPCK, N-Tosyl-L-phenylalanine chloromethyl ketone], under setting [2], the remaining activity at 10 µM came out at 14%. Further, the “effect of inhibitor” value under setting [1] was “significantly inactivate; also recorded: significant inhibition”.
